Source: patent US20260077051A1, “COMPOUNDS FOR THE DEGRADATION OF EGFR KINASE” (BeOne Medicines I GmbH, priority 2023, published 2026)

What was measured:
[1] = target: T1, EGFR L858R (BaF3-L858R cells) (Homo sapiens, UniProt P00533, L858R); assay: EGFR degradation in BaF3-L858R cells (HTRF assay); assay type: cell-based; conditions: 16 h treatment; for DC50: IC50(DC50) of EGFR degradation; for Dmax: maximum percentage of inhibition (degradation)
T1 construct: host or cells: BaF3
Procedure: BaF3-L858R (abbv. L858R) cell were purchased from Kangyuan Bochuang Biotechnology (Beijing) Co., Ltd.
(§1) H1975-#8 and BaF3-L858R cells are treated with compounds diluted in 0.1% DMSO cell culture medium on day 2, incubate for 16 h, 37° C., 5% CO2. the final concentration of compounds in all assay is start with 10 uM, 5-fold dilution, total 8 doses were included.
(§2) After 16 h treatment, for H1975-#8 cells, add 100 ul HTRF 1× lysis buffer to each well; for BaF3-L858R cells, add 20 μl 4× lysis buffer to each well; seal the plate and incubate 1 hour at room temperature on a plate shaker; Once the cells are lysed, 16 μL of cell lysate are transferred to a PE 384-well HTRF detection plate; 4 μL of pre-mixed HTRF antibodies are added to each well; Cover the plate with a plate sealer, spin 1000 rpm for 1 min, Incubate overnight at room temperature; Read on BMG PheraStar with HTRF protocol (337 nm-665 nm-620 nm).
(§3) The inhibition (degradation) percentage of the compound was calculated by the following equation:
(§4) High control=Cell group with added DMSO and without compound, indicating microplate readings without EGFR degradation;
(§5) Dmax is the maximum percentage of inhibition (degradation).
(§6) The IC50(DC50) value of a compound can be obtained by fitting the following equation
(§7) Wherein, X and Y are known values, and IC50, Hillslope, Top and Bottom are the parameters obtained by fitting with software. Y is the inhibition percentage (calculated from the equation), X is the concentration of the compound; IC50 is the concentration of the compound when the 50% inhibition is reached. The smaller the IC50 value is, the stronger the inhibitory ability of the compound is. Vice versa, the higher the IC50 value is, the weaker the ability the inhibitory ability of the compound is; Hillslope represents the slope of the fitted curve, generally around 1*; Bottom represents the minimum value of the curve obtained by data fitting, which is generally 0%±20%; Top represents the maximum value of the curve obtained by data fitting, which is generally 100%±20%. The experimental data were fitted by calculating and analyzing with Dotmatics data analysis software.

[2] = target: T2, EGFR-L858R/C797S (H1975-clone #8 cells) (Homo sapiens, UniProt P00533, C797S/L858R); assay: EGFR degradation in H1975-clone#8 (L858R/C797S) cells (HTRF assay); assay type: cell-based; conditions: 16 h treatment; for DC50: IC50(DC50) of EGFR degradation; for Dmax: maximum percentage of inhibition (degradation)
T2 construct: expressed in transfected cells; host or cells: H1975 (lentiviral transduction, endogenous EGFR knocked out, single clone #8)
T2 sequence (P00533 25-1210 C797S/L858R): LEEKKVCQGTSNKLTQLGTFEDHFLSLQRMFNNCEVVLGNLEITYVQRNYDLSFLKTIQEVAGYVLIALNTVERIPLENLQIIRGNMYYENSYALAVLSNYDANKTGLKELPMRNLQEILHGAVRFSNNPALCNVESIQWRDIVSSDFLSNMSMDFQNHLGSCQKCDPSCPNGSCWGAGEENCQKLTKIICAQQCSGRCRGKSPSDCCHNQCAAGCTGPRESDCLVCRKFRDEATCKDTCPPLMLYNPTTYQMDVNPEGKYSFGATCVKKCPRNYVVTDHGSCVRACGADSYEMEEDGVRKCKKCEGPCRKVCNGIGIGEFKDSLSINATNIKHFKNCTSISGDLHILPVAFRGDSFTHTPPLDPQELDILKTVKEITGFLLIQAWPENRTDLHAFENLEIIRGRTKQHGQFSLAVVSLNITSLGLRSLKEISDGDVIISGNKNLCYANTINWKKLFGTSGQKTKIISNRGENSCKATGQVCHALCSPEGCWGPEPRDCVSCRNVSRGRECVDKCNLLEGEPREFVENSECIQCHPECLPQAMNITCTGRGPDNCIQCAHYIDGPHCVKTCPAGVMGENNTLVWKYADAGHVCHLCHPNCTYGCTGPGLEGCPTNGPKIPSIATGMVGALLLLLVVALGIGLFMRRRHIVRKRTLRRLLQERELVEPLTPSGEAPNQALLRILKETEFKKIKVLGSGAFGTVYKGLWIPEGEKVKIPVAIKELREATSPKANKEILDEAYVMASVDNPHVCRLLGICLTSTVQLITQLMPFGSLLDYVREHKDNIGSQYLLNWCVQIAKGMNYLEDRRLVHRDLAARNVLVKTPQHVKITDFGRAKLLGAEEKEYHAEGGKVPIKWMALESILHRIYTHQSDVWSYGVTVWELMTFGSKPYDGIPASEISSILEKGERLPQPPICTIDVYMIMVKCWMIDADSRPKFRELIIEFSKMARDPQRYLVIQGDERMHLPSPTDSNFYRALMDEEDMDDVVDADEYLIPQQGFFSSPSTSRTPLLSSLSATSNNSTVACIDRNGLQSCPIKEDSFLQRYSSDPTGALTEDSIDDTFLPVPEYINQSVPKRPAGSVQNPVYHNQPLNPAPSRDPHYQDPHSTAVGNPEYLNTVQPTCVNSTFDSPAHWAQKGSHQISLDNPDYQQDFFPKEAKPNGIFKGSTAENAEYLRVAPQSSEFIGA
Procedure: H1975-clone #8 (L858R/C797S): EGFR-L858R/C797S were stably expressed in H1975 cell lines by lentivirus-mediated over-expression, respectively. The EGFR over-expressed cells then underwent knockout, in which the EGFR targeting sgRNA was designed to only target the endogenous EGFR copies and preserve the exogenous EGFR copies. Followed by the knockout, the edited H1975 cells were seeded in 96 well plates at the concentration of […], cultured for about 2 weeks to allow single clones formation. The formed clones were screened by DNA sequencing and whole exon sequencing analysis for the desired edition. H1975-clone #8 were finally confirmed as homozygous L858R/C797S EGFR clones.
as §1, §2, §3, §4, §5, §6, §7

T1 sequence (P00533 25-1210 L858R): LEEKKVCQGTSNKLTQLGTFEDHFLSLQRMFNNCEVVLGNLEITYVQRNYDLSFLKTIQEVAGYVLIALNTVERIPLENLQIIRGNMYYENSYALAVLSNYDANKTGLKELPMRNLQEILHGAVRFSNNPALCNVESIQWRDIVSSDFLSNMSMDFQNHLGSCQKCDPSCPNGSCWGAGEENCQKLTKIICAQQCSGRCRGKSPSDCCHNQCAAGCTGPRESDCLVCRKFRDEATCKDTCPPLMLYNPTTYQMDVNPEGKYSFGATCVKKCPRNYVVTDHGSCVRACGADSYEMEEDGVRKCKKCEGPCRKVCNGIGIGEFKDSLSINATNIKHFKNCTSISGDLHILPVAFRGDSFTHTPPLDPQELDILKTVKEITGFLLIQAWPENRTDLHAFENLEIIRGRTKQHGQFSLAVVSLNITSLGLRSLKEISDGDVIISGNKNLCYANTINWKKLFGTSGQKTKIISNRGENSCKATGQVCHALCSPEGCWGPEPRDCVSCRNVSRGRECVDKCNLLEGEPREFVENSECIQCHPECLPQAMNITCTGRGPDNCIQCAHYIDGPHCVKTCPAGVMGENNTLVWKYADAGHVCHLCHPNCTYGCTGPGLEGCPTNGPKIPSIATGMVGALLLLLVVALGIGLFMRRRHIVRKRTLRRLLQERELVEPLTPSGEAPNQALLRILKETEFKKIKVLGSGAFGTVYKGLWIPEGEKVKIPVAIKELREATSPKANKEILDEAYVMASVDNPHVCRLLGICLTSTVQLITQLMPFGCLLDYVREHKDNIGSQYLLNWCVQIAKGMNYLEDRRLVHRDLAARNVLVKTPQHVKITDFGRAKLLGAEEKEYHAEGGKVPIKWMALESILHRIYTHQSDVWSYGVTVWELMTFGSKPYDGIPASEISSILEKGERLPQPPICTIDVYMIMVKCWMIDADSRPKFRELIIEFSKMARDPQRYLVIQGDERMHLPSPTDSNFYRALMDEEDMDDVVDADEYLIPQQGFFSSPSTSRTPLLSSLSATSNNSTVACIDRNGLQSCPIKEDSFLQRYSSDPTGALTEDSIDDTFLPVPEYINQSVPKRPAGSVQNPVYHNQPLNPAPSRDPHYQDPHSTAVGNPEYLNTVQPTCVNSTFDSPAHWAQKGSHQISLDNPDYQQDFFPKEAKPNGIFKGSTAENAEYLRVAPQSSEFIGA

Row | DC50 [1] | Dmax [1] | DC50 [2] | Dmax [2] | Compound
1 | 3.54 nM | 95.5% | 0.635 nM | 72.7% | Cc1cc2cc(n1)-c1cnn(C)c1OCC[C@]1(C)C[C@H]1CN1/C(=N/C2=O)Nc2ccc(N3CCN([C@@H]4CCN(c5cnc(C6CCC(=O)NC6=O)cc5C)C[C@@H]4F)CC3)cc21 (stereo partly drawn) [Example 59, 3-(5-((3S,4R)-3-fluoro-4-(4-((7^1R,7^2S,E)-1^1,2^6,7^2-trimethyl-3-oxo-5^2,5^3-dihydro-1^1H,5^1H-10-oxa-4-aza-5 (2,1)-benzo[d]imidazola-2 (2,4)-pyridina-1 (4,5)-pyrazola-7 (1,2)-cyclopropanacyclodecaphane-5^6-yl)piperazin-1-yl)piperidin-1-yl)-4-methylpyridin-2-yl)piperidine-2,6-dione]
2 | 85.4 nM | 74.9% | – | – | Cc1cc2cc(n1)-c1cnn(C)c1OCC[C@H]1C[C@@H]1CN1/C(=N/C2=O)Nc2ccc(N3CCN(C[C@@H]4CCN(c5ccc(C6CCC(=O)NC6=O)nc5C)C4)CC3)cc21 (stereo partly drawn) [Example 9, 3-(5-((S)-3-((4-((7^1S,7^2R,E)-1^1,2^6-dimethyl-3-oxo-5^2,5^3-dihydro-1^1H,5^1H-10-oxa-4-aza-5 (2,1)-benzo[d]imidazola-2 (2,4)-pyridina-1 (4,5)-pyrazola-7 (1,2)-cyclopropanacyclodecaphane-5^6-yl)piperazin-1-yl)methyl)pyrrolidin-1-yl)-6-methylpyridin-2-yl)piperidine-2,6-dione]
3 | 0.99 nM | 91.8% | 1.29 nM | 80.8% | Cc1cc2cc(n1)-c1cnn(C)c1OCC[C@]1(C)C[C@H]1CN1/C(=N/C2=O)Nc2ccc(N3CCN([C@H]4CCN(c5cc(F)c(C6CCC(=O)NC6=O)nc5C)C[C@H]4F)CC3)cc21 (stereo partly drawn) [Example 61, 3-(3-fluoro-5-((3R,4S)-3-fluoro-4-(4-((7^1R,7^2S,E)-1^1,2^6,7^2-trimethyl-3-oxo-5^2,5^3-dihydro-1^1H,5^1H-10-oxa-4-aza-5 (2,1)-benzo[d]imidazola-2 (2,4)-pyridina-1 (4,5)-pyrazola-7 (1,2)-cyclopropanacyclodecaphane-56-yl)piperazin-1-yl)piperidin-1-yl)-6-methylpyridin-2-yl)piperidine-2,6-dione]
4 | 15.7 nM | 68.4% | – | – | Cc1cc2cc(n1)-c1cnn(C)c1OCC[C@H]1C[C@@H]1CN1/C(=N/C2=O)Nc2ccc(NC3CN(C4CCN(c5cnc(C6CCC(=O)NC6=O)cc5C)CC4)C3)cc21 (some centres unmarked) [Example 1, 3-(5-(4-(3-(((7^1S,7^2R,E)-1^1,2^6-dimethyl-3-oxo-5^2,5^3-dihydro-1^1H,5^1H-10-oxa-4-aza-5 (2,1)-benzo[d]imidazola-2 (2,4)-pyridina-1 (4,5)-pyrazola-7 (1,2)-cyclopropanacyclodecaphane-5^6-yl)amino)azetidin-1-yl)piperidin-1-yl)-4-methylpyridin-2-yl)piperidine-2,6-dione]
5 | 1.93 nM | 94.5% | 3 nM | 75% | Cc1cc2cc(n1)-c1cnn(C)c1OCC[C@]1(C)C[C@H]1CN1/C(=N/C2=O)Nc2ccc(N3CCN(C4CCN(c5ccc(C6CCC(=O)NC6=O)nc5C)CC4)CC3)cc21 (some centres unmarked) [Example 19, 3-(6-methyl-5-(4-(4-((7^1R,7^2S,E)-1^1,2^6,7^2-trimethyl-3-oxo-5^2,5^3-dihydro-1^1H,5^1H-10-oxa-4-aza-5 (2,1)-benzo[d]imidazola-2 (2,4)-pyridina-1 (4,5)-pyrazola-7 (1,2)-cyclopropanacyclodecaphane-5^6-yl)piperazin-1-yl)piperidin-1-yl)pyridin-2-yl)piperidine-2,6-dione]
6 | 6.69 nM | 84.6% | 5.12 nM | 66.3% | Cc1cc2cc(n1)-c1cnn(C)c1OCC[C@H]1C[C@@H]1CN1/C(=N/C2=O)Nc2ccc(N3CCN(C4CCN(c5cccc6c5C(C)(C)C(=O)N6C5CCC(=O)NC5=O)CC4)CC3)cc21 (some centres unmarked) [Example 18, 3-(4-(4-(4-((7^1S,7^2R,E)-1^1,2^6-dimethyl-3-oxo-5^2,5^3-dihydro-1^1H,5^1H-10-oxa-4-aza-5 (2,1)-benzo[d]imidazola-2 (2,4)-pyridina-1 (4,5)-pyrazola-7 (1,2)-cyclopropanacyclodecaphane-5^6-yl)piperazin-1-yl)piperidin-1-yl)-3,3-dimethyl-2-oxoindolin-1-yl)piperidine-2,6-dione]
7 | 6.31 nM | 78.2% | 2.71 nM | 49% | Cc1cc2cc(n1)-c1cnn(C)c1OCC[C@H]1C[C@@H]1CN1/C(=N/C2=O)Nc2ccc(N3CC4CCC3CN4C3CN(C4CCN(c5c(C)cc(C6CCC(=O)NC6=O)nc5C)CC4)C3)cc21 (some centres unmarked) [Example 28, 3-(5-(4-(3-(5-((7^1S,7^2R,E)-1^1,2^6-dimethyl-3-oxo-5^2,5^3-dihydro-1^1H,5^1H-10-oxa-4-aza-5 (2,1)-benzo[d]imidazola-2 (2,4)-pyridina-1 (4,5)-pyrazola-7 (1,2)-cyclopropanacyclodecaphane-5^6-yl)-2,5-diazabicyclo[2.2.2]octan-2-yl)azetidin-1-yl)piperidin-1-yl)-4,6-dimethylpyridin-2-yl)piperidine-2,6-dione]
8 | 17.1 nM | 82.2% | – | – | Cc1cc2cc(n1)-c1cnn(C)c1OCC[C@H]1C[C@@H]1CN1/C(=N/C2=O)Nc2ccc(N3CC4CCC3CN4C3CCN(c4ccc(C5CCC(=O)NC5=O)nc4C)CC3)cc21 (some centres unmarked) [Example 6, 3-(5-(4-(5-((7^1S,7^2R,E)-1^1,2^6-dimethyl-3-oxo-5^2,5^3-dihydro-1^1H,5^1H-10-oxa-4-aza-5 (2,1)-benzo[d]imidazola-2 (2,4)-pyridina-1 (4,5)-pyrazola-7 (1,2)-cyclopropanacyclodecaphane-5^6-yl)-2,5-diazabicyclo[2.2.2]octan-2-yl)piperidin-1-yl)-6-methylpyridin-2-yl)piperidine-2,6-dione]
9 | 72.2 nM | 70.3% | – | – | Cc1cc2cc(n1)-c1cnn(C)c1OCC[C@H]1C[C@@H]1CN1/C(=N/C2=O)Nc2ccc(N3CCC(N4CC5CCC4CN5c4ccc(C5CCC(=O)NC5=O)nc4C)CC3)cc21 (some centres unmarked) [Example 5, 3-(5-(5-(1-((7^1S,7^2R,E)-1^1,2^6-dimethyl-3-oxo-5^2,5^3-dihydro-1^1H,5^1H-10-oxa-4-aza-5 (2,1)-benzo[d]imidazola-2 (2,4)-pyridina-1 (4,5)-pyrazola-7 (1,2)-cyclopropanacyclodecaphane-5^6-yl)piperidin-4-yl)-2,5-diazabicyclo[2.2.2]octan-2-yl)-6-methylpyridin-2-yl)piperidine-2,6-dione]
10 | 8.09 nM | 82.2% | – | – | Cc1cc2cc(n1)-c1cnn(C)c1OCC[C@H]1C[C@@H]1CN1/C(=N/C2=O)Nc2ccc(N3CCN(CC4CN(c5ccc6c(c5)C(C)(C)C(=O)N6C5CCC(=O)NC5=O)C4)CC3)cc21 (some centres unmarked) [Example 13, 3-(5-(3-((4-((7^1S,7^2R,E)-1^1,2^6-dimethyl-3-oxo-5^2,5^3-dihydro-1^1H,5^1H-10-oxa-4-aza-5 (2,1)-benzo[d]imidazola-2 (2,4)-pyridina-1 (4,5)-pyrazola-7 (1,2)-cyclopropanacyclodecaphane-5^6-yl)piperazin-1-yl)methyl)azetidin-1-yl)-3,3-dimethyl-2-oxoindolin-1-yl)piperidine-2,6-dione]

Row | Compound | DC50 [1] | Dmax [1] | DC50 [2] | Dmax [2]
11 | Cc1cc2cc(n1)-c1cnn(C)c1OCC[C@H]1C[C@@H]1CN1/C(=N/C2=O)Nc2ccc(N3CCC(N4CC5CCC(C4)N5c4ccc(C5CCC(=O)NC5=O)nc4C)CC3)cc21 (some centres unmarked) [Example 4, 3-(5-(3-(1-((7^1S,7^2R,E)-1^1,2^6-dimethyl-3-oxo-5^2,5^3-dihydro-1^1H,5^1H-10-oxa-4-aza-5 (2,1)-benzo[d]imidazola-2 (2,4)-pyridina-1 (4,5)-pyrazola-7 (1,2)-cyclopropanacyclodecaphane-5^6-yl)piperidin-4-yl)-3,8-diazabicyclo[3.2.1]octan-8-yl)-6-methylpyridin-2-yl)piperidine-2,6-dione] | 52.5 nM | 63.6% | – | –
